In patent US20110021572A1, “FUNGICIDE HYDROXIMOYL-TETRAZOLE DERIVATIVES” (priority 2008, published 2011):
Where two headings read alike, the source gives them in different places.

Key:
[1] = Measurement of logP values by HPLC on reversed phase columns (EEC directive 79/831 Annex V.A8); assay type: physicochemical
[2] = system: Plasmopara viticola; test: Plasmopara test (grapevines)/protective; assay type: in vivo; settings: protective, 100 ppm of active ingredient, evaluated 6 days after inoculation
Procedure: To test for protective activity, young plants are sprayed with the preparation of active compound at the stated rate of application. After the spray coating has dried on, the plants are inoculated with an aqueous spore suspension of Plasmopara viticola and then remain for 1 day in an incubation cabinet at approximately 20° C. and a relative atmospheric humidity of 100%. The plant is subsequently placed for 4 days in a greenhouse at approximately 21° C. and a relative atmospheric humidity of approximately 90%. The plants are then misted and placed for 1 day in an incubation cabinet.

[3] = system: Phytophthora infestans; assay type: in vivo; settings: tomato plants, preventive, 500 ppm of active ingredient, evaluated 7 days after inoculation

Row | Structure (SMILES) | chromatographic logP ([1]; pH 2.7) | efficacy [2] [%] | chromatographic logP ([1]; HPLC, pH 2.7, 0.1% formic acid, reported in preparation examples, read-out: logP(HCOOH)) | efficacy [3] [%]
1 | Cn1nnnc1C(=NOCc1ncccc1N1C(=O)c2ccccc2C1=O)c1ccccc1 [Example 13, 2-{2-[({[(1-methyl-1H-tetrazol-5-yl)(phenyl)methylene]amino}oxy)methyl]pyridin-3-yl}-1H-isoindole-1,3(2H)-dione] | 2.63 | – | – | –
2 | CCCCCOC(=O)Nc1cccnc1CON=C(c1ccccc1)c1nnnn1C [Example 2, pentyl {2-[({[(1-methyl-1H-tetrazol-5-yl)(phenyl)methylene]amino}oxy)methyl]pyridin-3-yl}carbamate] | – | ≥ 70 | 3.53 | ≥ 70
3 | Cn1nnnc1C(=NOCc1ncccc1N)c1ccccc1 [Example 14, 2-[({[(1-methyl-1H-tetrazol-5-yl)(phenyl)methylene]amino}oxy)methyl]pyridin-3-amine] | 1.01 | – | – | –
